Active and inactive are the calls of the source.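 How the source made its calls: active means at 10 µM dose, any replicate showing 50% or greater reduction of parasite growth in red cells; inactive means the rest.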

This experiment relates to P. falciparum 3D7 in RBCs, 3H-hypoxanthine uptake, 48 h. Put plainly: single-dose blood-stage antimalarial activity – cell-based, radiolabel, RBCs, powder samples, M17LAP inhibitor project, late-stage follow-up (AID 492955). The note with it: at 10 µM; stronger effect = higher value.
In the case of `COc1cc(NC(=O)CSc2nc3c(C)ccc(C)c3cc2C)c(C(=O)O)cc1OC`, the inhibition was 5% (inactive). Consider `CCOC(=O)c1c(-c2ccc(C)cc2)csc1NC(=O)[C@H]1CC=CC[C@H]1C(=O)O`, for which the inhibition is 10.7% (inactive). Under `CCc1cc2cc(OC)ccc2nc1SCC(=O)Nc1cc(OC)c(OC)cc1C(=O)O` stands 2.33% (inactive); under `COc1cc(NC(=O)CSc2nnc3c(C)cc4cc(C)cc(C)c4n23)c(C(=O)O)cc1OC`, 7.56% (inactive); under `S=c1nc(-c2ccccc2Br)[nH][nH]1`, 0% (inactive). Under `O=C(Nc1cccc(Cl)c1)[C@H]1CC=CC[C@H]1C(=O)O` stands 0.333% (inactive); under `COc1cc(NC(=O)CSc2nc3ccccc3cc2C)c(C(=O)O)cc1OC`, 5.89% (inactive). Under `Cn1c(SCC(=O)Nc2cccc3ccccc23)nc(O)cc1=O` stands 2.5% (inactive); under `COc1cc(NC(=O)CSc2nc3cc(C)ccc3cc2C)c(C(=O)O)cc1OC`, 5.17% (inactive); under `Cc1ccc(-n2c(C)cc(C(=O)COC(=O)c3ccc[nH]c3=O)c2C)cc1`, 20% (inactive). For the compound `COc1cc(NC(=O)CSc2ncnc3scc(-c4ccccc4)c23)c(C(=O)O)cc1OC`, the inhibition was 6.83% (inactive). Regarding `CCCCc1c(O)nc(SCC(=O)Nc2ccc3c(c2)CCC3)[nH]c1=O`, the inhibition was 7.67% (inactive). To `Cc1ccc(-c2c(C)sc(NC(=O)[C@@H]3C4CCC(O4)[C@@H]3C(=O)O)c2C(=O)OC(C)C)cc1` (stereo partly specified) belongs 6.33% (inactive). As to `CCOC(=O)c1c(NC(=O)[C@@H]2C3CCC(O3)[C@@H]2C(=O)O)sc(C)c1-c1ccc(C)cc1` (stereo partly specified), the inhibition is 0% (inactive). Turning to `Cc1cc(C(=O)COC(=O)c2ccc[nH]c2=O)c(C)n1-c1ccc(F)cc1`, the inhibition is 0% (inactive). Under `Cc1cc(C(=O)COC(=O)c2ccc[nH]c2=O)c(C)n1-c1ccccc1` stands 6.67% (inactive); under `COc1ccc(C(C)(C)C)cc1NC(=O)[C@H]1CC=CC[C@H]1C(=O)O`, 0% (inactive). Consider `O=C(CSc1nc(O)cc(=O)n1-c1ccccc1)Nc1ccc2c3c(cccc13)CC2`, for which the inhibition is 3% (inactive). On to `CCc1cc2ccc(C)cc2nc1SCC(=O)Nc1cc(OC)c(OC)cc1C(=O)O`, for which the inhibition is 6.44% (inactive).

Consider `CCOC(=O)c1c(-c2cccc(C)c2)csc1NC(=O)[C@H]1CC=CC[C@H]1C(=O)O`, for which the inhibition was 1.83% (inactive).

On to `CCc1ccc(Nc2nnc(SC3CCOC3=O)s2)cc1` (stereo unspecified), for which the inhibition is 0% (inactive). For the compound `COc1ccc(-c2cc(=O)[nH][nH]2)cc1`, the inhibition was 0% (inactive). For `CCOc1ccc(NC(=O)Nc2ccc3nccnc3c2)cc1`, the inhibition was 16% (inactive). To `N#Cc1c(-c2ccccc2)nc(SCC(=O)N2c3ccccc3Sc3ccccc32)[nH]c1=O` belongs 1% (inactive); to `CCc1cc2ccccc2nc1SCC(=O)Nc1cc(OC)c(OC)cc1C(=O)O`, 2.78% (inactive).

As for `Cc1ccc(NC(=O)CSc2nnc(C)c(=O)[nH]2)cc1C`, the inhibition is 15.8% (inactive).

Turning to `O=C(CSc1nnc(Nc2ccccc2)s1)NN1C(=O)NC2(CCCCC2)C1=O`, the inhibition was 12.9% (inactive).

With `CCOc1ccc(NC(=O)Nc2cccs2)cc1`, the inhibition is 0% (inactive).

For the compound `COc1ccc(-c2cc(=O)[nH][nH]2)cc1OC`, the inhibition was 3.83% (inactive). Regarding `CC1=Nc2ccc(C)cc2/C1=C/c1c(N)n2c(S(=O)(=O)C(C)C)nsc2nc1=O`, the inhibition is 19.2% (inactive). For the compound `C=CCn1c(SCC(=O)Nc2cccc3ccccc23)nc(O)c(CC)c1=O`, the inhibition was 8.22% (inactive). Under `O=C(Nc1cc(Cl)ccc1Cl)[C@H]1CC=CC[C@H]1C(=O)O` stands 1.33% (inactive); under `Cc1ccc(-c2cccc(NC(=O)[C@@H]3C4C=CC(C4)[C@@H]3C(=O)O)c2)o1` (stereo partly specified), 8.83% (inactive); under `O=C(CSc1nccc(=O)[nH]1)Nc1ccc(Br)c(Cl)c1`, 8.67% (inactive). In the case of `COC(=O)c1c(-c2cc(C)ccc2C)csc1NC(=O)[C@@H]1CC=CC[C@@H]1C(=O)O`, the inhibition was 3.33% (inactive).

In the case of `COc1ccc(NC(=O)CSc2nc(O)cc(=O)n2C)cc1`, the inhibition is 3.67% (inactive). Regarding `CCOc1cccc(-c2cc(=O)[nH][nH]2)c1`, the inhibition was 2.83% (inactive).

Consider `S=c1nc(-c2cccc(Cl)c2)[nH][nH]1`, for which the inhibition is 0% (inactive). To `COc1ccc(NC(=O)CSC2=NC(=O)CC(C)=N2)cc1` belongs 0% (inactive); to `COC(=O)c1c(NC(=O)[C@H]2CCCC[C@H]2C(=O)O)sc2c1CCCCC2`, 3.33% (inactive). For `CC(=O)NS(=O)(=O)c1ccc(N=c2ssc3c2-c2ccc(C)cc2NC3(C)C)cc1`, the inhibition was 4.5% (inactive). Under `O=c1cc(-c2ccc(F)cc2)[nH][nH]1` stands 5.67% (inactive); under `O=c1cc(-c2ccc(Cl)c(Cl)c2)[nH][nH]1`, 2.67% (inactive); under `O=C(O)CCCCCNC(=O)Nc1ccc2c(c1)OCCO2`, 6.33% (inactive).

`O=C(O)Cc1ccc(NC(=O)Nc2ccc(Br)cc2)cc1`: the inhibition is 1.67% (inactive). With `CN1C(=O)/C(=C/c2ccc(-c3ccccc3[N+](=O)[O-])o2)SC1=Nc1ccc(Cl)c(C(=O)O)c1`, the inhibition is 0% (inactive). As for `COC(=O)c1c(-c2ccco2)csc1NC(=O)[C@H]1CC=CC[C@H]1C(=O)O`, the inhibition is 0% (inactive).

For the compound `Cc1noc(NS(=O)(=O)c2ccc(NC(=O)CSc3nnc4c(n3)[nH]c3ccccc34)cc2)c1C`, the inhibition is 1.67% (inactive). Under `COc1ccc2nc(SCC(=O)Nc3cc(OC)c(OC)cc3C(=O)O)c(C)cc2c1` stands 1.44% (inactive). Regarding `CCc1cc2cc3c(cc2nc1SCC(=O)Nc1cc(OC)c(OC)cc1C(=O)O)OCO3`, the inhibition was 0% (inactive).

On to `N#Cc1c(NC(=O)[C@@H]2C3C=CC(C3)[C@@H]2C(=O)O)sc2c1CCCCC2` (stereo partly specified), for which the inhibition was 0% (inactive). To `CC(C)c1ccc(NC(=O)[C@H]2CCCC[C@H]2C(=O)O)cc1` belongs 5.67% (inactive); to `COC(=O)c1c(-c2ccc(C)cc2)csc1NC(=O)[C@H]1CC=CC[C@H]1C(=O)O`, 0% (inactive). For the compound `CCc1ccc(NC(=O)[C@H]2CC=CC[C@H]2C(=O)O)cc1`, the inhibition is 0% (inactive). To `Cc1ccc(Nc2nnc(SC3CCOC3=O)s2)cc1` (stereo unspecified) belongs 4% (inactive).

Consider `O=C(Nc1ccc(Cl)cc1)Nc1cccc(C(=O)O)c1`, for which the inhibition is 0% (inactive). Regarding `COC(=O)c1c(NC(=O)[C@H]2CC=CC[C@H]2C(=O)O)sc(C)c1C`, the inhibition is 1.33% (inactive). With `CCn1c2ccccc2c2cc(NC(=O)CSc3nccc(=O)[nH]3)ccc21`, the inhibition is 2.67% (inactive). Under `CCOC(=O)c1c(NC(=O)[C@@H]2C3C=CC(C3)[C@@H]2C(=O)O)sc2c1CCC(CC)C2` (stereo partly specified) stands 5% (inactive); under `Cc1ccc(Nc2nnc(SCc3cc(=O)n4ccsc4n3)s2)c(C)c1`, 18.4% (inactive); under `COC(=O)c1cccc(NC(=O)CSc2nc(C)cc(=O)[nH]2)c1`, 9.78% (inactive). Take `CCN(CC)c1ccc(NC(=O)CSc2nc(C)cc(=O)[nH]2)cc1`: the inhibition was 3.5% (inactive). For `CCCCOc1ccc(CC(=O)NO)cc1`, the inhibition was 81.2%. Regarding `CC1=C(C)C[C@@H](C(=O)O)[C@@H](C(=O)Nc2cccc([N+](=O)[O-])c2)C1`, the inhibition was 11.2% (inactive). To `Cc1ccc(-n2c(C)cc(C(=O)COC(=O)c3ccc[nH]c3=O)c2C)cc1C` belongs 3.17% (inactive). On to `CCc1nnc(NC(=O)CSc2nnc(-c3ccc(NS(=O)(=O)c4ccccc4)cc3)o2)s1`, for which the inhibition is 2.33% (inactive).

Source of the values: PubChem BioAssay AID492955 (The Scripps Research Institute Molecular Screening Center, 2010).
